Measured values published in patent US20220233556A1, “COMPOSITIONS AND METHODS FOR TREATING OPHTHALMIC CONDITIONS” (Medicon Pharmaceuticals, Inc., priority 2017, published 2022).
Read-outs that look alike come from different tables or passages of the source.

How the values were obtained:
Staphylococcus aureus = experiment: Disk diffusion method, antibiotic disks impregnated with PS; type: cell-based; conditions: PS 1-9% vs 0% PS
Procedure: It was assessed whether the combination of PS with antibiotics for their topical application to the eye affects the antimicrobial activity of the antibiotics. To this end, the disk diffusion method was used.
Briefly, Staphylococcus aureus grown in culture was seeded evenly on Muller-Hinton II Agar plates (BD Diagnostic Systems) at the standard concentration of 2×10^8 colony-forming units per mL. Antibiotic antimicrobial susceptibility disks (Thermo Scientific Oxoid™) were impregnated with one of six concentrations of PS (0%, 1%, 2%, 3%, 6%, 9%); 10 μL of each was evenly dispensed on each disk. An additional control was disks with no PS and no vehicle. The growth of bacteria around each disk was monitored and the area of “no growth” around each disk was measured 24 h later.

Con A-induced dry eye = Con A-induced dry eye disease (DED) in rabbits: TBUT, tear osmolarity, STT, tear lactoferrin; type: in vivo, New Zealand White (NZW) rabbits
Procedure: Con A was injected under ultrasound guidance into all the lacrimal glands and the success of the injection was verified by a post-injection ultrasound image (see FIG. 1 and FIG. 2). […] This variation explains why the blind injections recommended in the original method are often unsuccessful. This was confirmed by mixing the Con A solution with methylene blue and tracking its course after injection. In about ⅓ of the cases, Con A ended up outside the gland.
Four parameters of efficacy were evaluated instead of the usual one or two. They include (a) the tear break up time (TBUT), determined using 0.2% fluorescein over the eye and recording the time taken to develop black dots, lines or obvious disruption of the fluorescein film; (b) tear osmolarity, measured using TearLab Osmolarity Test and following the manufacturer's instructions (TearLab Corp., San Diego, Calif.); (3) Schirmer tear test (STT), determined using Schirmer strips (EagleVision, Denville, N.J.) inserted between the cornea and the palpebral conjunctiva at the mid-point of the lower lid and measuring the length of moistened strip at 5 min; and (4) tear lactoferrin levels measured by ELISA kit (MyBiosource, San Diego, Calif.) following the instructions of the manufacturer. All four have been used in clinical practice and correlate with the clinical activity of the disease. The STT is the least reliable and, as result, it is clinically used less than half as frequently as TBUT.
The injections of Con A to the lacrimal glands were repeated weekly as needed. When longer than a 1-week periods of study are needed, repeat injections prolong dry eye for at least 3 weeks, making the originally acute model chronic.
PS Suppresses Con A—Induced Dry Eye in Rabbits. The effect of PS on dry eye was determined in New Zealand White (NZW) rabbits, 2-3 kg (Charles River Labs, Waltham, Mass.). These rabbits were housed singly in rooms with strict temperature (70±5° F.) and humidity (45±5%) control and acclimated for at least 2 weeks prior to induction of dry eye by injection of Con A as above. NZW rabbits with Con A-induced dry eye (three sets of injections) were treated with PS formulated as nanoparticles and administered topically as eye drops 3×/day for 21 days, starting on the day of Con A injection. […] Similar results were obtained on days 5 and 14 (data not shown). […]
The efficacy of lower concentrations of PS. The efficacy of lower concentrations of PS, 0.1% and 0.2% in DED, was also evaluated. The same animal model (rabbits with Concanavalin A-induced DED) was used. The same methodology described herein was followed, except that PS was administered as two eye drops per eye (˜25 μL each) four times a day. PS was formulated in: 10% (2-hydroxypropyl)-β-cyclodextrin, 4% Tween 80, 2.5% Vitamin E TPGS, 1.4% polyvinyl alcohol (13,000-26,000 molecular weight), 0.001% polyquad, as described herein. The Table below summarizes the corresponding findings: […]

[1] = Ocular PK study of PS nanoparticles (mPEG-PLA), topical eye drops; type: in vivo, New Zealand white rabbits; set-up: AUC(0-t) / AUC0-16h, cornea / AUC0-16h, conjunctiva: concentration or dose not given beside the values; conditions: for AUC(0-t) / Cmax: New Zealand white, rabbit, topical or ocular
Procedure: Composition: ˜3.0-3.5% PS, 96.5˜97% methoxy poly(ethylene glycol)-poly(lactide) (mPEG-PLA).
Preparation Method: Oil phase: 150 mg of PS and 1 g of PEG-PLA (Akina, Inc) were dissolved in 20 mL dichloromethane (DCM). Water phase: 365 mg of sodium cholate were dissolved in 60 ml of purified water. 5 mL of the oil phase was gently added into 15 mL of the water phase in a 50 mL Eppendorf conical tube. To create an emulsion, we used robe sonication for 2 min at 75% output (Branson 150, Fisher Scientific™, USA); the watt output was 12-13. The emulsion was transferred into a 100 mL beaker and stirred overnight at 600 rpm in a chemical hood until the DCM was fully evaporated. This was followed by centrifugation at 14,000 rpm for 1 h (Dupont, RC-5C). Then, the supernatant was transferred to another tube into which 3 mL of PBS were added to resuspend the nanoparticles. The nanoparticle solution was centrifuged for 6-7 seconds to remove aggregates. This supernatant was the final preparation.
Ocular PK study: PS formulated in nanoparticles as above was administered topically as eye drops to New Zealand white rabbits. The biodistribution of PS in ocular tissues at the indicated time points post administration was determined by HPLC.

[2] = 1 week of treatment, comparison with ophthalmic NSAIDs (FIG. 5)
[3] = PS 0.1%, two eye drops four times a day, Baseline, mean ± SEM (n = 12)
[4] = PS 0.1%, two eye drops four times a day, Day 5, mean ± SEM (n = 12)
[5] = PS 0.2%, two eye drops four times a day, Baseline, mean ± SEM (n = 12)
[6] = PS 0.2%, two eye drops four times a day, Day 5, mean ± SEM (n = 12)
[7] = PS nanoparticles, eye drops 3x/day for 21 days

For `CCOP(=O)(OCC)OCCCCOC(=O)CC1=C(C)/C(=C/c2ccc([S+](C)[O-])cc2)c2ccc(F)cc21` (stereo not drawn) [PS, phosphosulindac], the “effect of PS on the inhibition zone of each antibiotic” value (Staphylococcus aureus) was “did not appreciably change”, the STT (Con A-induced dry eye; [2]) was “no significant effect” and the TBUT (Con A-induced dry eye; [2]) was “normalized”. For the same molecule, the osmolarity (Con A-induced dry eye; [2]) was “normalized”, the STT (Con A-induced dry eye; [3]) was 16.4 ± 1.5 mm and the TBUT (Con A-induced dry eye; [3]) was 57.9 ± 1.5 s. It also gave an STT (Con A-induced dry eye; [4]) of 12.0 ± 0.8 mm, a TBUT (Con A-induced dry eye; [4]) of 45.4 ± 5.2 s and an STT (Con A-induced dry eye; [5]) of 15.9 ± 1.0 mm. It also gave a TBUT (Con A-induced dry eye; [5]) of 57.9 ± 2.1 s, an STT (Con A-induced dry eye; [6]) of 11.8 ± 0.9 mm and a TBUT (Con A-induced dry eye; [6]) of 45.7 ± 4.5 s. For the same molecule, the TBUT (Con A-induced dry eye; [7]) was “restored to normal”, the tear lactoferrin levels (Con A-induced dry eye; [7]) was “restored to normal” and the tear osmolarity (Con A-induced dry eye; [7]) was “restored to normal”. The STT value (Con A-induced dry eye; PS nanoparticles, eye drops 3x/day for 21 days, difference from vehicle significant only for trend) was “improved”, the AUC(0-t) ([1]; aqueous humor, read-out: AUC0-16 h, Aqueous humor) was 3.4 µM·h and the Cmax ([1]; aqueous humor, read-out: Cmax, Aqueous humor) was 2.6 µM. For the same molecule, the AUC(0-t) ([1]; ciliary body, read-out: AUC0-16 h, Ciliary body) was 3.6 µM·h, the Cmax ([1]; ciliary body, read-out: Cmax, Ciliary body) was 2.6 µM and the AUC(0-t) ([1]; conjunctiva, read-out: AUC0-16 h, Conjunctiva) was 61.7 µM·h. For the same molecule, the Cmax ([1]; conjunctiva, read-out: Cmax, Conjunctiva) was 26.7 µM, the AUC(0-t) ([1]; cornea, read-out: AUC0-16 h, Cornea) was 156 µM·h and the Cmax ([1]; cornea, read-out: Cmax, Cornea) was 101 µM. For the same molecule, the AUC(0-t) ([1]; iris, read-out: AUC0-16 h, Iris) was 13.6 µM·h, the Cmax ([1]; iris, read-out: Cmax, Iris) was 5.2 µM and the AUC(0-t) ([1]; sclera, read-out: AUC0-16 h, Sclera) was 3.3 µM·h. The Cmax ([1]; sclera, read-out: Cmax, Sclera) was 2.1 µM, the Cmax, conjunctiva ([1]; PS and its metabolites) was 26.7 µM and the “Cmax, cornea” value ([1]; PS and its metabolites) was 101.3 μm.
